Measured values as given in ChEMBL document CHEMBL4376820, “Homodimeric Tobramycin Adjuvant Repurposes Novobiocin as an Effective Antibacterial Agent against Gram-Negative Bacteria” (J Med Chem, 2019).
Calls of active or inactive are those of the source. No cut-off for these calls is given here.

How the values were obtained:
Pseudomonas aeruginosa [1] = test: Synergistic antibacterial activity against wild type Pseudomonas aeruginosa PAO1 assessed as potentiation of cefotaxime-induced antibacterial effect incubated for 18 hrs by checkerboard assay; assay type: functional, organism-based
Pseudomonas aeruginosa [2] = test: Synergistic antibacterial activity against wild type Pseudomonas aeruginosa PAO1 assessed as potentiation of meropenem-induced antibacterial effect incubated for 18 hrs by checkerboard assay; assay type: functional, organism-based
HEK293 = test: Cytotoxicity against human HEK293 cells at 50 uM incubated for 48 hrs by PrestoBlue dye based fluorescence assay; assay type: cell-based; settings: hek293, 48 h
HepG2 = test: Cytotoxicity against human HepG2 cells at 50 uM incubated for 48 hrs by PrestoBlue dye based fluorescence assay; assay type: cell-based; settings: hepg2, 48 h
Erythrocyte = test: Hemolytic activity against porcine erythrocytes assessed as hemoglobin release at 1024 ug/ml incubated for 1 hr by microplate reader analysis; assay type: ADME, cell-based, Sus scrofa; settings: pig
[3] = Toxicity in Galleria mellonella larvae assessed as survivability at 200 mg/kg measured every 6 hrs for 72 hrs; assay type: organism-based; settings: in vivo
Pseudomonas aeruginosa [4] = test: Synergistic antibacterial activity against wild type Pseudomonas aeruginosa PAO1 assessed as potentiation of doxycycline-induced antibacterial effect incubated for 18 hrs by checkerboard assay; assay type: functional, organism-based
Pseudomonas aeruginosa [5] = test: Synergistic antibacterial activity against wild type Pseudomonas aeruginosa PAO1 assessed as potentiation of linezolid-induced antibacterial effect incubated for 18 hrs by checkerboard assay; assay type: functional, organism-based
Pseudomonas aeruginosa [6] = test: Synergistic antibacterial activity against wild type Pseudomonas aeruginosa PAO1 assessed as potentiation of chloramphenicol-induced antibacterial effect incubated for 18 hrs by checkerboard assay; assay type: functional, organism-based
Pseudomonas aeruginosa [7] = test: Synergistic antibacterial activity against wild type Pseudomonas aeruginosa PAO1 assessed as potentiation of novobiocin-induced antibacterial effect incubated for 18 hrs by checkerboard assay; assay type: functional, organism-based
Pseudomonas aeruginosa [8] = test: Synergistic antibacterial activity against wild type Pseudomonas aeruginosa PAO1 assessed as potentiation of vancomycin-induced antibacterial effect at <=7.1 uM incubated for 18 hrs by checkerboard assay; assay type: functional, organism-based
Pseudomonas aeruginosa [9] = test: Antibacterial activity against wild type Pseudomonas aeruginosa PAO1 assessed as fractional inhibitory concentration index incubated for 18 hrs in presence of colistin by checkerboard assay; assay type: functional
Pseudomonas aeruginosa [10] = test: Synergistic antibacterial activity against wild type Pseudomonas aeruginosa PAO1 assessed as potentiation of aztreonam-induced antibacterial effect incubated for 18 hrs by checkerboard assay relative to aztreonam alone; assay type: functional
Pseudomonas aeruginosa [11] = test: Synergistic antibacterial activity against wild type Pseudomonas aeruginosa PAO1 assessed as potentiation of fosfomycin-induced antibacterial effect incubated for 18 hrs by checkerboard assay relative to fosfomycin alone; assay type: functional
Pseudomonas aeruginosa [12] = test: Synergistic antibacterial activity against wild type Pseudomonas aeruginosa PAO1 assessed as potentiation of piperacillin-induced antibacterial effect incubated for 18 hrs by checkerboard assay relative to piperacillin alone; assay type: functional
Pseudomonas aeruginosa [13] = test: Potentiation of novobiocin-induced antibacterial activity against carbapenem and colistin-resistant Pseudomonas aeruginosa 91433 clinical isolate assessed as novobiocin MIC at <= 7.1 uM incubated for 18 hrs by CLSI protocol based assay (reference value: 16 ug/ml); assay type: functional; settings: Pseudomonas aeruginosa, 91433, 18 h
Acinetobacter baumannii [14] = test: Potentiation of novobiocin-induced antibacterial activity against Acinetobacter baumannii 031 clinical isolate assessed as novobiocin MIC at <= 7.1 uM incubated for 18 hrs by CLSI protocol based assay (reference value: 8 ug/ml); assay type: functional; settings: Acinetobacter baumannii, 031, 18 h
Acinetobacter baumannii [15] = test: Potentiation of novobiocin-induced antibacterial activity against Acinetobacter baumannii 110193 clinical isolate assessed as novobiocin MIC at <= 7.1 uM incubated for 18 hrs by CLSI protocol based assay (reference value: 256 ug/ml); assay type: functional; settings: Acinetobacter baumannii, 110193, 18 h
Acinetobacter baumannii [16] = test: Potentiation of novobiocin-induced antibacterial activity against Acinetobacter baumannii LAC-4 clinical isolate assessed as novobiocin MIC at <= 7.1 uM incubated for 18 hrs by CLSI protocol based assay (reference value: 8 ug/ml); assay type: functional; settings: LAC-4, 18 h
Enterobacter cloacae [17] = test: Potentiation of novobiocin-induced antibacterial activity against colistin-resistant Enterobacter cloacae 118568 clinical solate assessed as novobiocin MIC at <= 7.1 uM incubated for 18 hrs by CLSI protocol based assay (reference value: 1024 ug/ml); assay type: functional; settings: Enterobacter cloacae, 118568, 18 h
Pseudomonas aeruginosa [18] = test: Antibacterial activity against wild type Pseudomonas aeruginosa PAO1 incubated for 18 hrs by CLSI protocol based assay; assay type: functional; settings: PAO1, 18 h
Pseudomonas aeruginosa [19] = test: Antibacterial activity against carbapenem and colistin-resistant Pseudomonas aeruginosa 114228 clinical incubated for 18 hrs by CLSI protocol based assay B84; assay type: functional; settings: Pseudomonas aeruginosa, 114228, 18 h
Escherichia coli [20] = test: Antibacterial activity against carbapenem-resistant Escherichia coli 107115 clinical isolate harboring mcr-1 gene incubated for 18 hrs by CLSI protocol based assay; assay type: functional; settings: Escherichia coli, 107115, 18 h
Klebsiella pneumoniae = test: Antibacterial activity against colistin-resistant Klebsiella pneumoniae 113250 clinical isolate incubated for 18 hrs by CLSI protocol based assay; assay type: functional; settings: Klebsiella pneumoniae, 113250, 18 h
Enterobacter cloacae [21] = test: Antibacterial activity against Enterobacter cloacae 117029 clinical solate incubated for 18 hrs by CLSI protocol based assay; assay type: functional; settings: Enterobacter cloacae, 117029, 18 h
Enterobacter cloacae [22] = test: Antibacterial activity against colistin-resistant Enterobacter cloacae 121187 clinical solate incubated for 18 hrs by CLSI protocol based assay; assay type: functional; settings: Enterobacter cloacae, 121187, 18 h
Pseudomonas aeruginosa [23] = test: Potentiation of novobiocin-induced antibacterial activity against wild type Pseudomonas aeruginosa PAO1 assessed as fold reduction in novobiocin MIC incubated for 18 hrs by CLSI protocol based assay relative to novobiocin MIC; assay type: functional
Acinetobacter baumannii [24] = test: Potentiation of novobiocin-induced antibacterial activity against Acinetobacter baumannii 027 clinical isolate assessed as fold reduction in novobiocin MIC incubated for 18 hrs by CLSI protocol based assay relative to novobiocin MIC; assay type: functional
Acinetobacter baumannii [25] = test: Potentiation of novobiocin-induced antibacterial activity against Acinetobacter baumannii 110193 clinical isolate assessed as fold reduction in novobiocin MIC incubated for 18 hrs by CLSI protocol based assay relative to novobiocin MIC; assay type: functional
Escherichia coli [26] = test: Potentiation of novobiocin-induced antibacterial activity against carbapenem-resistant Escherichia coli 107115 clinical isolate harboring mcr-1 gene assessed as fold reduction in novobiocin MIC incubated for 18 hrs by CLSI protocol based assay relative to novobiocin MIC; assay type: functional
Enterobacter cloacae [27] = test: Potentiation of novobiocin-induced antibacterial activity against Enterobacter cloacae 117029 clinical solate assessed as fold reduction in novobiocin MIC incubated for 18 hrs by CLSI protocol based assay relative to novobiocin MIC; assay type: functional
Pseudomonas aeruginosa [28] = test: Antibacterial activity against mexAB-oprM/mexCD-oprJ/mexEF-oprN/mexJK/mexXY/opmH mutant deficient Pseudomonas aeruginosa PAO750 incubated for 18 hrs by CLSI protocol based assay; assay type: functional; settings: PAO750, 18 h
Acinetobacter baumannii [29] = test: Antibacterial activity against wild type Acinetobacter baumannii ATCC 17978 assessed as resistant development at 7.1 uM measured after 5 days of passaging in presence of novobiocin by microbroth dilution method relative to control; assay type: functional
Acinetobacter baumannii [30] = test: Antibacterial activity against novobiocin and test compound-resistant Acinetobacter baumannii ATCC 17978 mutant generated from seven serial passages in presence of novobiocin by checkerboard assay; assay type: functional
[31] = Toxicity in Galleria mellonella larvae MDR Acinetobacter baumannii isolate assessed as larvae protection at 50 mg/kg in combination with novobiocin measured after 24 to 96 hrs relative to control; assay type: ADME, organism-based; settings: in vivo
Acinetobacter baumannii [32] = test: Antibacterial activity against wild type Acinetobacter baumannii ATCC 17978 by checkerboard assay; assay type: functional

## NC[C@H]1O[C@H](O[C@H]2[C@H](OCCCCc3cn(CCCCO[C@@H]4[C@@H](O[C@H]5O[C@H](CO)[C@@H](O)[C@H](N)[C@H]5O)[C@H](N)C[C@H](N)[C@H]4O[C@H]4O[C@H](CN)[C@@H](O)C[C@H]4N)nn3)[C@@H](O[C@H]3O[C@H](CO)[C@@H](O)[C@H](N)[C@H]3O)[C@H](N)C[C@@H]2N)[C@H](N)C[C@@H]1O.O=C(O)C(F)(F)F.O=C(O)C(F)(F)F.O=C(O)C(F)(F)F.O=C(O)C(F)(F)F.O=C(O)C(F)(F)F.O=C(O)C(F)(F)F.O=C(O)C(F)(F)F.O=C(O)C(F)(F)F.O=C(O)C(F)(F)F.O=C(O)C(F)(F)F
Pseudomonas aeruginosa [1]
  Activity: Dose-dependent effect
Pseudomonas aeruginosa [2]
  Activity: Dose-dependent effect
HEK293
  Activity: Non-Toxic
HepG2
  Activity: Non-Toxic
Erythrocyte
  Activity: Non-Toxic
[3]
  Activity: Non-Toxic
Pseudomonas aeruginosa [4]
  Activity: Dose-dependent effect
Pseudomonas aeruginosa [5]
  Activity: Dose-dependent effect
Pseudomonas aeruginosa [6]
  Activity: Dose-dependent effect
Pseudomonas aeruginosa [7]
  Activity: Dose-dependent effect
Pseudomonas aeruginosa [8]
  Activity: inactive
Pseudomonas aeruginosa [9]
  fractional inhibitory concentration index (FICI): >4
Pseudomonas aeruginosa [10]
  fold change (FC): 4 - 128
Pseudomonas aeruginosa [11]
  fold change (FC): 4 - 128
Pseudomonas aeruginosa [12]
  fold change (FC): 4 - 128
Pseudomonas aeruginosa [13]
  MIC: 1 µg/mL
Acinetobacter baumannii [14]
  MIC: 0.5 µg/mL
Acinetobacter baumannii [15]
  MIC: 1 µg/mL
Acinetobacter baumannii [16]
  MIC: 0.5 µg/mL
Enterobacter cloacae [17]
  MIC: 32 µg/mL
Pseudomonas aeruginosa [18]
  MIC: > 128 µg/mL
Pseudomonas aeruginosa [19]
  MIC: > 128 µg/mL
Escherichia coli [20]
  MIC: > 128 µg/mL
Klebsiella pneumoniae
  MIC: > 128 µg/mL
Enterobacter cloacae [21]
  MIC: > 128 µg/mL
Enterobacter cloacae [22]
  MIC: > 128 µg/mL
Pseudomonas aeruginosa [23]
  Ratio: 128
Acinetobacter baumannii [24]
  Ratio: 16
Acinetobacter baumannii [25]
  Ratio: 256
Escherichia coli [26]
  Ratio: 16
Enterobacter cloacae [27]
  Ratio: 128
Pseudomonas aeruginosa [28]
  MIC: > 128 µg/mL
Acinetobacter baumannii [29]
  fold change (FC): 16
Acinetobacter baumannii [30]
  MIC: 16 µg/mL
[31]
  Activity: 80%
Acinetobacter baumannii [32]
  MIC: 0.5 µg/mL
